Data published in article PMC6832503, “Synthesis of Novel Nicotinic Ligands with Multimodal Action: Targeting Acetylcholine α4β2, Dopamine and Serotonin Transporters” (Molecules, 2019).
Where a name gives a salt, the structure may show the parent alone.

System: not given
Settings: not given
`CN1CCCC1CCOC(=O)c1cccc(F)c1` (racemic) (as salt: hydrochloride) [Compound 8, (±)-2-(1-Methyl-2-pyrrolidinyl)ethyl 3-fluorobenzoate] showed a melting point of 106.8 to 107.5 °C.
`CN1CCCC1CCOC(=O)c1cccc(Cl)c1` (racemic) (as salt: hydrochloride) [Compound 9, (±)-2-(1-Methyl-2-pyrrolidinyl)ethyl 3-chlorobenzoate] gave a melting point of 144.7 to 146.2 °C.
`CN1CCCC1CCOC(=O)Cc1ccccc1` (racemic) (as salt: hydrochloride) [Compound 16, (±)-2-(-1-Methyl-2-pyrrolidinyl)ethyl 2-phenylacetate] showed a melting point of 86.7 to 87.4 °C.
For `CN1CCCC1CCOC(=O)c1ccc2ccccc2c1` (racemic) (as salt: hydrochloride) [Compound 19, (±)-2-(1-Methyl-2-pyrrolidinyl)ethyl 2-naphthoate], the melting point was 155.6 to 157.4 °C.
With `CN1CCCC1CCOC(=O)C(c1ccccc1)c1ccccc1` (racemic) (as salt: hydrochloride) [Compound 21, (±)-2-(-1-Methyl-2-pyrrolidinyl)ethyl 2,2-diphenylacetate] the melting point was 115.3 to 117.2 °C.

Target: T1, α4β2 nAChR (Rattus norvegicus, UniProt P09483+P12390)
T1 construct: the rat complete brain P1 fraction (occupying 2 mg of wet tissue for each assay); from tissue; host or cells: whole rat brain, synaptosome pellet (fraction P1)
T1 sequence (P09483 31-630): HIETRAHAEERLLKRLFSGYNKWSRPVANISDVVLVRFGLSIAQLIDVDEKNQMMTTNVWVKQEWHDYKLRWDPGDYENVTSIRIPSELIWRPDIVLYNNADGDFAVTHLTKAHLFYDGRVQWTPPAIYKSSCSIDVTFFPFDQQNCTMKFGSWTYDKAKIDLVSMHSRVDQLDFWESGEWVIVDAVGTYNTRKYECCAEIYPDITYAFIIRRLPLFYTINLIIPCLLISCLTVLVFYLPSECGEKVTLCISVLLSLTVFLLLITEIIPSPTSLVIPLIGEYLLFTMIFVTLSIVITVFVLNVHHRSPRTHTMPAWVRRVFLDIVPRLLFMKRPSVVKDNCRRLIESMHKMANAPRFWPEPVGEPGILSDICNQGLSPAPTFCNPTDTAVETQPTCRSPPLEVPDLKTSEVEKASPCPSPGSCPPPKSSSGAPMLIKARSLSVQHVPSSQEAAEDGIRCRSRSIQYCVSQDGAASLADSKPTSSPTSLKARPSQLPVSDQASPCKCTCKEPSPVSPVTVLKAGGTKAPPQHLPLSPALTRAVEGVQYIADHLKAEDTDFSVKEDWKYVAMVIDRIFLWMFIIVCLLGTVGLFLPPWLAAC
T1 sequence (P12390 25-500): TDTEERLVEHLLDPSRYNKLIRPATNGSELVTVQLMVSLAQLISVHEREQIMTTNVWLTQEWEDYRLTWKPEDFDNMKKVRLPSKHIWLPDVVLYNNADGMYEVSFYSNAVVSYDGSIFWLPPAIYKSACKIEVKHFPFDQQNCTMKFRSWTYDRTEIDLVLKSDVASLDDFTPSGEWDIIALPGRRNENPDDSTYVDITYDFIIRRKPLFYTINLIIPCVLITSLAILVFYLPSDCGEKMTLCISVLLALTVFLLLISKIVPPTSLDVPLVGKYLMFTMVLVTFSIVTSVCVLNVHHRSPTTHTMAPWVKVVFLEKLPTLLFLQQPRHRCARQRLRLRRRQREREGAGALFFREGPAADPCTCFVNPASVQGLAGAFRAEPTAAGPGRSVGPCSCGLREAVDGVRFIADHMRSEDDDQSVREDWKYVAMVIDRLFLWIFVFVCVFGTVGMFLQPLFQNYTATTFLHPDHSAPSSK
Settings: bupropion included as comparative value, not used in the trial; cited from earlier work
For `CC(NC(C)(C)C)C(=O)c1cccc(Cl)c1` (stereo not drawn) [Bupropion], the Ki is given as 10 µM.
